Laboratory results reported in patent publication US20190133997A1, “ARTEMISININ ANALOG, AND USE, METHOD, AND COMPOSITION FOR PROMOTING LIPID CATABOLISM AND IMPROVING SUGAR METABOLISM” (FUDAN UNIVERSITY, priority 2016, published 2019).

How the values were obtained:
ob/ob mice = experiment: Intraperitoneal artemether, fatty liver in diabetic ob/ob mice; assay type: in vivo, Male ob/ob mice; conditions: intraperitoneal 20 mg/kg twice a week, eight weeks
Procedure: Ob/ob mice were breeded in the SPF animal laboratory of the Laboratory Animal Center of Fudan University at a room temperature of 21° C.-23° C. with a 12-hour light/dark cycle. When the mice were grown to 4-week old, they were randomly divided into a control group and an administration group, with 4 mice in each group. Mice in administration group were injected intraperitoneally with artemether. Artemether for intraperitoneal injection was stored at 4° C. in coconut oil at a storage concentration of 6 mg/ml (20 mMol/L), and protected from light. Ob/ob mice in administration group were injected with artemether at a dose of 20 mg/kg weight. Administration was twice a week for eight weeks. The mice were sacrificed by cervical dislocation, and liver tissues of mice were removed, fixed and paraffin embedded. The histological analysis was commissioned by Shanghai Saige Biotech Co., Ltd.

BMP4-directed C3H10T1/2 = experiment: Artemether on BMP4-directed C3H10T1/2 differentiation (morphology, Western blot, MitoTracker Green); assay type: cell-based
Procedure: 7.5×10^5 C3H10T1/2 were seeded in a 3.5 cm cell culture dish, and cultured for 3-5 days in a maintenance medium. On the next day of seeding, BMP4 (at a final concentration of 20 ng/ml) was added to the medium to allow the cells to proliferate to contact inhibition. Two days after the contact inhibition was reached, the medium was changed to induced differentiation medium, and the induced mixture (0.5 mMol/L Mix, 1 μMol/L Dex, 1 ng/ml insulin, 100 nMol/L indometacin, 1 nM T3) was added at the same time. This day was defined as Day 0 of differentiation. After 2 days of induction, fresh induced differentiation medium was replaced, and 1 ng/ml insulin and 1 nMol/L T3 were added. After another 2 days of culture, the fresh medium was replaced every other day until the culture was differentiated to Day 8 at which time the cells were mature. At this time, the differentiated and mature cells were white adipocytes.
7.5×10^5 C3H10T1/2 were seeded in a 3.5 cm cell culture dish, and cultured for 3-5 days in a maintenance medium. On the next day of seeding, BMP7 (at a final concentration of 100 ng/ml) was added to the medium to allow the cells to proliferate to contact inhibition. Two days after the contact inhibition was reached, the medium was changed to induced differentiation medium, and the induced mixture (0.5 mM Mix, 1 μM Dex, 1 ng/ml insulin, 100 nM indometacin, 1 nM T3) was added at the same time. This day was defined as Day 0 of differentiation. After 2 days of induction, fresh induced differentiation medium was replaced, and 1 ng/ml insulin and 1 nM T3 were added. After another 2 days of culture, the fresh medium was replaced every other day until the culture was differentiated to Day 8 at which time the cells were mature. At this time, the cells differentiated to mature were brown adipocytes.
On Day 0 of differentiation, that is, when the induced differentiation mixture was added, the compound was added to the medium at a storage concentration of 10 mMol/L, and the final concentrations were […], respectively. When the fresh medium was replaced, the corresponding compound was supplemented, and the compound was always with the cells until the cells differentiated to mature.
C3H10T1/2 differentiated to mature was induced in a 3.5 cm culture dish, with the method of differentiation referring to Method 2.4.1. 300 μl Trizol was added to fully lyse the cells, and the lysate was transferred into a 1.5 ml centrifuge tube and heated at 100° C. for 10 min. The lysate was centrifuged at 13000 g for 10 min at 4° C., the lipid in the upper layer was removed, and the clarified lysate in the middle layer was transferred into a new centrifuge tube. 2.5 μl lysate was taken and quantified by BCA method, and 200 μl lysate was mixed with 50 μl loading buffer, heated at 100° C. for 10 min, and stored at −20° C. until use.
[…] C3HOT1/2 protein was loaded onto 10% polyacrylamide gel, and electrophoresis was carried out, with electrophoresis being carried out on base gel at 80V, and on separating gel at 100V, until the target band was separated. The protein was transferred to a PVDF membrane in an ice bath at 100 V for 100 min. After the transfer was completed, it was blocked for 1 hr in 5% skim milk prepared with TBST (TBS buffer+0.5% Tween), and incubated with specific antibodies overnight at 4° C. The next day, the PVDF membrane was washed three times with TBST at room temperature for 10 min, incubated with the corresponding secondary antibody at room temperature for 1 hr, then washed three times with TBST at the same condition as that of primary antibody, incubated with chemiluminescent reagent at room temperature for 1 min, detected with ImageQuant LAS4000 Mini Automatic chemiluminescence apparatus and exposed, and the results were recorded.
C3H10T1/2 differentiated to mature was induced in a 3.5 cm culture dish. The medium was removed and 1 ml PBS was added. […]

SVF primary preadipocyte = experiment: Artemether on differentiation of Stromal Vascular Fraction (SVF) primary preadipocytes (morphology, Western blot); assay type: cell-based, mice
Procedure: Inguinal fat of male mice was cut into pieces, treated with collagenase at 37° C. for 15 min, and centrifuged at 250 rpm for 10 min. The pellet was resuspended in F12/DMEM medium. 2.5×10^5 cells were taken and seeded in a 3.5 cm culture dish, which was pretreated with 1 ml polylysine for 30 min. Two days after cell contact inhibition (defined as Day 0 of differentiation), induction was performed according to adipocyte differentiation protocol as follows: two days after induction with F12/DMEM comprising 10% fetal bovine serum, 0.5 mMol/L Mix, 1 μMol/L Dex, 5 μg/ml insulin, and 1 μMol/L rosiglitazone; the culture was continued for 2 days with DMEM/F12 comprising 10% fetal bovine serum, […] insulin and 1 μMol/L rosiglitazone; thereafter, DMEM/F12 medium containing 10% fetal bovine serum was replaced every other day until the cells differentiated to Day 8.
On Day 0 of differentiation, SVF was treated with different concentrations of artemether ([…]), then fresh medium was replaced, and the corresponding concentration of artemether was added until the cells differentiated to mature.
The method for extracting total SVF protein was the same as 2.4.3, Western blot method and catalog number of antibody was the same as 2.4.4.

[1] = artemether 5, 10, 15 Mol/L, Western blot, β-actin reference, concentration-dependent tendency
[2] = SVF, artemether 5, 10, 15 Mol/L, Western Blot

## CO[C@H]1O[C@@H]2O[C@@]3(C)CC[C@H]4[C@H](C)CC[C@@H]([C@H]1C)[C@@]24OO3 [artemether]
ob/ob mice
  fatty liver of ob/ob mice (HE staining): significantly relieved
BMP4-directed C3H10T1/2; [1]
  protein level of PGC1α: increased
  protein level of PRDM16: increased
  protein level of UCP1: increased
BMP4-directed C3H10T1/2; artemether 5, 10, 15 μMol/L, Western blot, β-actin reference, concentration-dependent tendency
  protein level of CytoC: increased
BMP4-directed C3H10T1/2; artemether 15 μMol/L
  mitochondrial biosynthesis (MitoTracker Green): significantly enhanced
BMP4-directed C3H10T1/2; artemether 15 μMol/L during differentiation, similar to BMP7-directed cell morphology
  cell morphology of BMP4-directed C3H10T1/2: exhibited brown fat-like characteristics
SVF primary preadipocyte; [2]
  expression level of PGC1α: gradually increase with the increase of artemether concentration
  expression level of PRDM16: gradually increase with the increase of artemether concentration
  expression level of UCP1: gradually increase with the increase of artemether concentration
SVF primary preadipocyte; artemether 5, 10, 15 Mol/L during differentiation, vs standard differentiated control cells, concentration-dependent tendency
  cell morphology of SVF primary preadipocyte: smaller in size, with characteristics of multi-cavity small lipid droplets
